In assay [1] the target is T1, IDO1 enzyme in Hela cells (Homo sapiens, UniProt P14902).
T1 construct: recombinant human γ-interferon was added to a final concentration of 100 ng/mL to induce IDO1 expression; endogenous in cells; host or cells: Hela cells
The assay can be described thus: hIDO1 cytological activity assay (kynurenine in Hela cells by LC-MS). The class given is cell-based. The note with it: IDO1 induced with 100 ng/mL recombinant human γ-interferon, 20 h, read-out: hIDO1 Cytological active IC50. The protocol:
Experimental Example 2: hIDO1 Cytological Activity Assay
The change of kynurenine in Hela cells was detected by the LC-MS method, and the IC50 value of the compound was used as an index to evaluate the inhibitory effect of the compound of formula I on IDO1 enzyme.
The culture medium, trypsin and DPBS were preheated in a 37° C. water bath. The culture medium for cell culture was sucked out and washed with 10 mL of DPBS; the preheated trypsin was added into the culture flask, and the flask was rotated to allow the trypsin to uniformly cover it, and then placed in a 37° C., 5% CO2 incubator to digest for 1-2 min; in each T150, cells were dispersed with 10-15 mL of the culture medium, centrifuged at 800 rpm for 5 min, and then resuspended with 10 mL of medium; 1 mL of cell suspension was pipetted and cells were counted with Vi-cell; Hela cells were diluted with the culture medium to 5×10^5/mL, 80 μL of the solution was added to a 96-cell plate, and cultured at 37° C. for 5-6 h in a 5% CO2 incubator.
The compound was diluted to 1 mM with DMSO, and then diluted 3-fold in duplicate wells, with 9 gradients. […]
10 μL of recombinant human γ-interferon was added to a final concentration of 100 ng/mL to induce IDO1 expression. […] The content of kynurenine was detected by LC-MS. […]

The target in assay [2] is T2, recombinant human IDO1 enzyme (Homo sapiens, UniProt P14902).
T2 construct: purchased NTRC NTRC-hIDO-10K
Kind of assay: In vitro hIDO1 enzyme activity test (NFK Green fluorescence). The class given is biochemical. The settings on record: recombinant human IDO1, L-tryptophan substrate, pH 6.5, NFK Green readout. The protocol:
Experimental Example 1: In Vitro hIDO1 Enzyme Activity Test
The change of NFK production was detected by using the NFK Green™ fluorescent molecule, which is the metabolite of the IDO1 enzyme, and the IC50 value of the compound was used as an index, to evaluate the inhibitory effect of the compound of formula I on the recombinant human IDO1 enzyme.
The compound of formula I was diluted to 1 mM with DMSO, and then diluted 3-fold in duplicate wells, with 10 gradients. 48 μL of 50 mM phosphate buffer (pH 6.5) was transferred and added to the compound plate via Bravo automated liquid handling platform. 2 μL of the diluted solution of the compound in DMSO was then added thereto and mixed, followed by transferring 10 μL thereof to an enzyme reaction plate.
The IDO1 enzyme was diluted to 20 nM in the reaction buffer (50 mM phosphate buffer (pH 6.5), 0.1% Tween-20, 2% glycerol, 20 mM ascorbic acid, 20 μg/mL catalase and 20 μM methylene blue), 20 μL of which was transferred to an enzyme reaction plate and incubated at 23° C. for 30 min. The reaction was started by adding 10 μL of 400 μM L-tryptophan substrate and incubated at 23° C. for 90 min. 10 μL of NFK Green™ fluorescent dye was added thereto, and the plate was sealed with the microplate sealing film, incubated at 37° C. for 4 h, and then read on Envision Multimode Microplate Reader (Ex 400 nm/Em 510 nm). […]

T2 sequence (P14902 whole entry): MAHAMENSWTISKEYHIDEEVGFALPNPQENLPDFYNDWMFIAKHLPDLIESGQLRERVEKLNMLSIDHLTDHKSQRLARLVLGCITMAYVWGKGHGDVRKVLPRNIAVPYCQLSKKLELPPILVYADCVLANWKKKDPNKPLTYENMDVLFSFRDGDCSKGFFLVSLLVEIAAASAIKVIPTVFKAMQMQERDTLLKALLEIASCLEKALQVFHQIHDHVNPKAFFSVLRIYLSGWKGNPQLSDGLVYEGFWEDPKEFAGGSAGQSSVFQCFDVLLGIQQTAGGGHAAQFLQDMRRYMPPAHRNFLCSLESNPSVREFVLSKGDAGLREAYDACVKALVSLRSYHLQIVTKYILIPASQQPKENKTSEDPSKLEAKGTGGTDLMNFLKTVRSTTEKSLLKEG
T1 sequence (P14902 whole entry): as above

The IC50 is the point on the concentration scale where inhibition reaches its midpoint. Regarding `FC1(F)CCC([C@H]2c3sccc3-c3cncn32)CC1` [Compound of formula I, (S)-8-(4,4-difluorocyclohexyl)-8H-thieno[3,4]pyrrolo[1,5-a]imidazole], the concentration for half-maximal inhibition (IC50) in assay [1] is 74.9 nM; in assay [2], 48 nM.

(Values after patent publication US11236107B2, “Crystal of tricyclic compound” (Chia Tai Tianqing Pharmaceutical Group Co., Ltd., priority 2017, dated 2022).)
